# From patent US20040091479A1, “T-cell epitope of the papillomavirus l1 and e7 protein and use thereof in diagnostics and therapy” (priority 2000, published 2004)
# What was measured:
# [1] = test system: T cell line generated with HeLa CD80/HLA-A2 transfectants (H7.1-A2); assay: IFN-γ ELISpot of H7.1-A2-specific T cell line against peptide-loaded autologous PBMC; assay type: cell-based, human; settings: H7.1-A2-induced T cell line, FIG. 17 top
# [2] = test system: CVLP-stimulated CD4-positive T cells; assay: Restimulating HPV18 CVLP-stimulated T cells with BLCL presenting pools or Q30 (example 15); assay type: cell-based, human
# Protocol: (§1) In analogy with example 6, human T cells derived from a non-HLA-typed blood donor were stimulated, at 37° C., with HPV18L1ΔCDIE71-53DI CVLPs and HPV18L1ΔCDIE71-60DI CVLPs and harvested.
# The T cells were then restimulated, at 37° C. and in 100 μl of medium, with the peptide pools from example 6 and 10^5 antigen-presenting cells (donor-identical BLCL) in the presence of 10 IU of IL2/ml. Use was made, in this connection, of quantities of the peptide pools which were such that 1 μg/ml was added in the case of each individual peptide. Cells which were only incubated with buffer served as the negative control while cells which were incubated with the HPV18 L1 or E7 peptide pool served as positive controls (upper part of FIG. 14). In the case of the lower part of FIG. 14, the T cells were restimulated, at 37° C. and in 100 μl of medium, with peptide pools F and 4 and with 1 μg of peptide Q30/ml and 10^5 antigen-presenting cells (donor-identical BLCL) in the presence of 10 IU of IL2/ml.
# (§2) 1 μl of monensin was added after an hour. The cells were then incubated at 37° C. for a further 5 hours. After that, the cells were fixed and permeabilized and stained with α-human CDB/APC, with α-human CD4/PerCP and with α-human IFNγ/FITC. The labeling of the cells was examined in a FACScan Calibur and the results of the measurements were analyzed using Cellquest software.
# human T cells = assay: Summary of examples 3 to 18: epitopes recognized by human T cells; assay type: cell-based; settings: Table 4, HPV18 peptides, species human
# LKK cells = assay: 51Cr release: lysing HPV18 peptide-loaded LKK cells (example 17); assay type: cell-based, murine
# Protocol: In analogy with example 4, RMA or LKK cells were radioactively labeled with ^51Cr and incubated with the peptides (Q43 and Q44 in the upper part of FIG. 16 and Q49 in the lower part of FIG. 16) which are plotted on the X axis. Cells without peptide served as negative controls. T cells which had previously been stimulated with the peptide pool were then added.
# The lysis of the RMA cells or LKK cells by the T cells was measured by the release of the ^51Cr and calculated as described in example 4.
# [3] = test system: autologous peptide-loaded BLCL; assay: Cytotoxicity test (chromium release assay) of HPV18 E786-94-specific T cells; assay type: cell-based, human; settings: effector to target ratio of 30:1, FIG. 17 bottom
# Protocol: The predicted peptides were synthesized using standard methods (F moc method). […] For this, 1×10^5 PBMC derived from healthy, HLA-A2-positive donors were sown, in 100 μl of medium (RPMI 1640, 10% heat-inactivated AB plasma), in each well of a 96-well plate. 20 μg of peptide/ml were added to the culture medium. The cells were incubated at 37° C. and restimulated once per week with irradiated peptide-loaded autologous PBMC. The stimulator PBMC were incubated for 4 hours in medium containing 20 μg of peptide/ml. After the irradiation, they were diluted down to 1×10^4/100 μl with medium and added to the peptide-stimulated PBMC. For this, half the medium was aspirated from each well and 100 μl of the stimulator PBMC suspension were added. 10 U of IL-2/ml and 10 U of IL-7/ml were added from the 3rd stimulation onwards. From the 5th stimulation onwards, restimulation was carried out in the same manner using peptide-loaded autologous B lymphoblast cell lines (BLCL).
# The cytotoxicity of HPV18 E786-94-specific T cells was determined in a chromium release assay. Autologous BLCL were used as the target cells. In each case, 5×10^5 cells were taken up in 100 μl of medium (RPMI 1640, 10% FCS) and treated with 20 μl of ^51chromium (NEN). For loading the BLCL with peptide, 50 μg of the corresponding peptide were added/ml. After that, the cells were incubated at room temperature for 2 hours while being carefully resuspended every 20-30 min. The cells were then washed 3 times with 5 ml of medium. For the sedimenting, the cells were in each case centrifuged at 1500 rpm for 5 min and then carefully resuspended. […]
# The assay samples were incubated for 4 hours at 37° C., 98% atmospheric humidity and 5% CO2. […] On the following day, 150 μl of Microscint 40 scintillation fluid (Canberra-Packard, Deieich) were added and the numbers of distintegrations per minute in the individual assay samples were measured in the scintillation counter (Topcount, Canberra-Packard, Dreieich).
# The specific lysis was calculated using the following formula: […]
# [4] = test system: CVLP-stimulated human CD4-positive T cells; assay: Restimulating HPV18 CVLP-stimulated T cells with BLCL presenting HPV18 peptide pools (example 6); assay type: cell-based; settings: peptide common to two reactive HPV18 pools; CD4/IFNγ
# Protocol: Human T cells (4×10^5) from a non-HLA-typed blood donor were stimulated for 1 week with HPV18 L1ΔCDIE71-53DI CVLPs and HPV18 L1ΔACDIE71-60DI CVLPS, 800 U of human GM-CSF/ml and 500 U of human IL4/ml and also, for a further 5 weeks, with HPV18 L1ΔCDIE71-53DI CVLPs and HPV18 L1ΔCDIE71-6ODI CVLPs at 37° C., with the weekly addition of 1 μg of the CVLPs mixLure (ratio of the two constructs 1:1)/ml and 10^5 antigen-presenting cells (irradiated PMBC), and harvested.
# The 20 mer peptides Q1 to 52 were assembled into peptide pools A to H and 1 to 7, respectively, in accordance with the matrix
# The T cells were then restimulated, at 37° C. and in 100 μl of medium, with the peptide pools and 10^5 antigen-presenting cells (donor-identical BLCL) in the presence of 10 IU of IL2/ml. The quantities of the peptide pools which were used in this connection were such that. 1 μg/ml was added in the case of each individual peptide.
# Cells which were only incubated with buffer served as the negative control while cells incubated with the HPV18 L1 peptide pool and the HPV18 E7 peptide pool, respectively, served as positive controls.
# as §2, with “CD8/APC,” for “CDB/APC,”, “analyzed” for “examined”
# [5] = test system: CVLP-stimulated CD4-positive T cells; assay: Restimulating HPV18 CVLP-stimulated T cells with BLCL presenting HPV18 peptide pools (example 12); assay type: cell-based, human; settings: peptide common to two reactive HPV18 pools; CD4/IFNγ
# Protocol: as §1
# The T cells were then restimulated, at 37° C. and in 100 μl of medium, with the HPV18 peptide pools from example 6 and 10^5 antigen-presenting cells (donor-identical BLCL) in the presence of 10 IU of IL2/ml. Use was made, in this connection, of quantities of the peptide pools which were such that 1 μg/ml was added in the case of each individual peptide. Cells which were only incubated with buffer served as the negative control while cells which were incubated with HPV18 L1 peptide pool served as the positive control.
# as §2, with “CD8/APC,” for “CDB/APC,”
# [6] = test system: HPV18 CVLP-stimulated human T cells; assay: Restimulating HPV18 CVLP-stimulated T cells with BLCL presenting Q38, Q39, Q46 or Q47 (example 13); assay type: cell-based
# Protocol: In analogy with example 6, human T cells (4×10^5) derived from a non-HLA-typed blood donor were stimulated with HPV18L1ΔCDIE71-53DI CVLPs and HPV18L1ΔCDIE71-60DI CVLPs and harvested.
# The T cells were then restimulated, at 37° C. and in 100 μl of medium, with in each case 1 μg of peptide Q38, Q39, Q46 or Q47/ml and 10^5 antigen-presenting cells (donor-identical BLCL) in the presence of 10 IU of IL2/ml. Cells which were only incubated with buffer served as the negative control while cells which were incubated with the HPV18 L1 peptide pool or the E7 peptide pool served as positive controls.
# as §2, with “CD8/APC,” for “CDB/APC,”
# P33-loaded RMA cells = assay: 51Cr release: lysing P33-loaded RMA cells; assay type: cell-based, C57BL/6 mouse
# Protocol: RMA cells were incubated at 37° C. for one hour with ^51Cr, washed three times with medium and divided into 2 aliquots. 10 μg of the P33 peptide/ml were added to one aliquot of the cells while the other aliquot served as the negative control in the absence of the peptide. In each case 2000 of the cells (=target cells) were then added to 40.000 T cells (=effector cells) in a total volume of 150 μl. The T cells had previously been stimulated for 5 weeks with a mixture composed of 43 peptides (peptides 1-43, in each case 1 μg/ml).
# Assay mixtures for spontaneous and maximal lysis of the cells were set up in parallel. Target cells which were incubated with culture medium were used for the spontaneous lysis. For the maximal lysis, target cells were lysed by adding 0.5% Triton X100.
# The assay mixtures were incubated at 37° C. for 5 h. 50 μl volumes of the supernatants from the assay mixtures were added to Luma plates and dried overnight at room temperature. On the following morning, the quantity of radioactive ^51Cr (counts) was determined using a Canberra-Packerd B Plate Counter and related to the maximally lysed cells in the Triton assay mixture. The % specific lysis was then determined using the formula:
# x=100·(counts−spontaneous counts)/(maximal counts−spontaneous counts).
# [7] = test system: CVLP-stimulated CD8-positive T cells; assay: Restimulating HPV16 CVLP-stimulated T cells with P33-presenting BLCL (example 11); assay type: cell-based, human
# Protocol: In analogy with example 6, human T cells derived from a non-HLA-typed blood donor were stimulated with HPV16L1ΔC*E71-55 CVLPs and harvested.
# The T cells were then restimulated, at 37° C. and in 100 μl of medium, with 1 μg of peptide P33/ml and 10^5 antigen-presenting cells (donor-identical BLCL) in the presence of 10 IU of IL2/ml. Cells which were only incubated with buffer served as the negative control while cells which were incubated with HPV16 L1 peptide pool served as the positive control.
# as §2, with “CD8/APC,” for “CDB/APC,”
substance,measurement,setting,value
"HPV16 E728-36: control peptide in the ELISpot analysis (LNDSSEEED; UniProt P03129 28-36, looked up, fragment) [reference compound]",IFN-γ ELISpot reaction,[1],did not induce any IFN-γ secretion
"NNGVCWHNQLFVTVVDTTRS [Q30, HPV18 L1 320-339]",T cell epitope assignment (TH1),[2]; peptide common to pools F and 4,contains a TH1 epitope
same,"proportion of reactive CD4-positive and IFNγ-positive T cells, confirmation experiment","[2]; pools F or 4 or 1 μg Q30/ml compared with each other, FIG. 14",comparable
same,Epitope type,human T cells,TH1
"PQRHTMLCMCCKCEARIKLV [Q49, HPV18 E7 56-75]",T cell epitope assignment,LKK cells; conclusion from FIG. 16 lower part,H2k-restricted cytotoxic T cell epitope
same,specific lysis of target cells (51Cr release),"LKK cells; peptide-loaded LKK cells, effector:target 20, FIG. 16 lower part",able to efficiently lyse
"HPV16 E628-36: control peptide in the chromium release assay (TTIHDIILE; UniProt P03126 28-36, looked up, fragment)",specific lysis,[3],No specific lysis
"VDLLCHEQLSDSEEENDEID [Q46, HPV18 E7 23-42]",T cell epitope assignment,[4],contain T helper epitopes
same,T cell epitope assignment (TH1),[5],contain a TH1 epitope
same,proportion of reactive CD4-positive and IFNγ-positive T cells,"[6]; 1 μg peptide/ml, donor-identical BLCL, FIG. 12 top left",markedly higher than in the negative control
same,proportion of CD8-positive and IL4-positive cells,"[6]; 1 μg peptide/ml, FIG. 12 lower right","low, and comparable to the negative control"
same,T cell epitope assignment (TH1),[6]; conclusion from FIG. 12 top left,contain a TH1 epitope
same,Epitope type,human T cells,TH1
"HPV18 E77-15: control peptide; HPV18 E77-15 epitope described by Rudolf MP et al. (2001) (TLQDIVLHL; UniProt P06788 7-15, looked up, fragment)",specific lysis,[3],No specific lysis
"TTYKNTNFKEYLRHGEEYDL [P33, HPV16 L1 353-372]",specific lysis of target cells (51Cr release),"P33-loaded RMA cells; 10 μg P33/ml, effector:target 20, T cells stimulated with peptides P1-P43, FIG. 2",able to efficiently lyse
same,T cell epitope assignment,P33-loaded RMA cells; conclusion from FIG. 2,H2b-restricted cytotoxic T cell epitope
same,proportion of CD8-positive T cells reactive on the basis of IFNγ expression,"[7]; 1 μg P33/ml, donor-identical BLCL, versus negative control, FIG. 10",markedly higher
same,T cell epitope assignment,[7]; conclusion from FIG. 10,contains a cytotoxic T cell epitope
